Measurements: US20240002375A1, “2-(INDAZOL-5-YL)-6-(PIPERIDIN-4-YL)-1,7-NAPHTHYRIDINE DERIVATIVES AND RELATED COMPOUNDS AS MODULATORS FOR SPLICING NUCLEIC ACIDS AND FOR THE TRE” (REMIX THERAPEUTICS INC., priority 2020, published 2024)
Where a name gives a salt, the structure may show the parent alone. Read-outs that look alike come from different tables or passages of the source.

Columns and labels:
Format in all cases: cell-based
[1] = system: SMN2 CJ mRNA; assay: Gene panel canonical junction qPCR splicing assay, SMN2; conditions: Table 4, read-out: SMN2 IC50 (decrease in CJ mRNA levels)
Summary of the method: (§1)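 A673 or K562 cells treated with compound; canonical-junction mRNA measured by RT-qPCR with junction-spanning primer/probe sets, normalized to GAPDH, GUSB or PPIA and DMSO (2^−ΔΔCt). IC50 for CJ decrease from 4-parameter logistic fit of percentage response.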

[2] = system: Target C CJ mRNA; assay: Gene panel canonical junction qPCR splicing assay, Target C; conditions: Table 4, read-out: Target C IC50 (decrease in CJ mRNA levels)
Summary of the method: as §1

[3] = system: HTT CJ mRNA; assay: Gene panel canonical junction qPCR splicing assay, HTT; conditions: Table 4, read-out: HTT IC50 (decrease in CJ mRNA levels)
Summary of the method: as §1

[4] = system: HTT mRNA; assay: Splicing assay (RT-qPCR) of HTT mRNA alternative junction (AJ) and canonical junction (CJ)
Summary of the method: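 HTT splice switching read as formation of an alternative-exon junction (AJ) versus the canonical junction (CJ) by one-step RT-qPCR on cell lysates, with GAPDH/GUSB housekeeping normalisation in K562 and PPIA in A673. Compounds: 11-point 3-fold series up to 10 uM, ≤0.25% DMSO, 24 h at 37 °C.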

[5] = decrease in CJ mRNA, A673 or K562 cells, 24 hours, read-out: HTT CJ IC50
[6] = increase in AJ mRNA, A673 or K562 cells, 24 hours, read-out: HTT AJ AC50
[7] = 24 h, read-out: HTT AJ AC50 (nM)
[8] = 24 h, read-out: HTT CJ IC50 (nM)

Row | IC50 [1] | IC50 [2] | IC50 [3] | IC50 [4, 5] | SMILES | AC50 [4, 6] | AC50 [4, 7] | IC50 [4, 8]
1 | 1 to 10 µM | > 10 µM | > 10 µM | > 10000 nM | Cn1cc2cc(-c3ccc4nc(N5CCC56CCNC6)ccc4n3)c(O)cc2n1 (stereo not drawn) [Compound 162] | > 10000 nM |  | 
2 | 0.1 to 1 µM | > 10 µM | > 10 µM | > 10000 nM | Cn1cc2cc(-c3ccc4nc(N5CCC56CCCNC6)ccc4n3)c(O)cc2n1 (stereo not drawn) [Compound 163] | > 10000 nM |  | 
3 | 0.1 to 1 µM | 0.1 to 1 µM | 0.1 to 1 µM | 100 to 1000 nM | Cn1cc2cc(-c3ccc4nc(N5CCC56CCNCC6)ccc4n3)c(O)cc2n1 [Compound 164] | 100 to 1000 nM |  | 
4 | 1 to 10 µM | 1 to 10 µM | 1 to 10 µM | 1000 to 10000 nM | Cn1cc2cc(-c3ccc4nc(N5CC(NC(C)(C)C)C5)ccc4n3)c(O)cc2n1 [Compound 165] | 1000 to 10000 nM |  | 
5 | > 10 µM | > 10 µM | > 10 µM | > 10000 nM | CC(C)(C)NC1CCN(c2ccc3nc(-c4cc5cnccc5cc4O)ccc3n2)C1 (stereo not drawn) [Compound 166, 7-{6-[3-(tert-butylamino)pyrrolidin-1-yl]-1,5-naphthyridin-2-yl}isoquinolin-6-ol] | > 10000 nM |  | 
6 | > 10 µM | > 10 µM | > 10 µM | > 10000 nM | Cn1cnc2cc(-c3ccc4nc(N5CCC(NC(C)(C)C)C5)ccc4n3)c(O)cc2c1=O (stereo not drawn) [Compound 167, 7-{6-[3-(tert-butylamino)pyrrolidin-1-yl]-1,5-naphthyridin-2-yl}-6-hydroxy-3-methylquinazolin-4-one] | > 10000 nM |  | 
7 | > 10 µM | > 10 µM | > 10 µM | > 10000 nM | COc1cc2c(=O)n(C)cnc2cc1-c1ccc2nc(N3CCC(NC(C)(C)C)C3)ccc2n1 (stereo not drawn) [Compound 168, 7-{6-[3-(tert-butylamino)pyrrolidin-1-yl]-1,5-naphthyridin-2-yl}-6-methoxy-3-methylquinazolin-4-one] | > 10000 nM |  | 
8 | < 0.1 µM | 0.1 to 1 µM | < 0.1 µM | < 100 nM | CN[C@H]1CCN(c2ccc3nc(-c4cc5cn(C)nc5cc4O)ccc3n2)C1 [Compound 170, 2-methyl-5-{6-[(3S)-3-(methylamino)pyrrolidin-1-yl]-1,5-naphthyridin-2-yl}indazol-6-ol] | 100 to 1000 nM |  | 
9 | < 0.1 µM | 0.1 to 1 µM | < 0.1 µM | < 100 nM | CN[C@@H]1CCN(c2ccc3nc(-c4cc5cn(C)nc5cc4O)ccc3n2)C1 [Compound 172] | 100 to 1000 nM |  | 
10 | < 0.1 µM | < 0.1 µM | < 0.1 µM | < 100 nM | CC(C)N[C@@H]1CCN(c2ccc3nc(-c4cc5cn(C)nc5cc4O)ccc3n2)C1 [Compound 173] | < 100 nM |  | 
11 | > 10 µM | > 10 µM | > 10 µM | > 10000 nM | Cc1cc(=O)c2cc(O)c(-c3ccc4nc(N5CCC(NC(C)(C)C)C5)ccc4n3)cc2o1 (stereo not drawn) [Compound 174] | > 10000 nM |  | 
12 | < 0.1 µM | < 0.1 µM | < 0.1 µM | < 100 nM | Cc1nc2cc(O)c(-c3ccc4nc(N5CCC(NC(C)(C)C)C5)ccc4n3)cc2o1 (stereo not drawn) [Compound 175, 6-{6-[3-(tert-butylamino)pyrrolidin-1-yl]-1,5-naphthyridin-2-yl}-2-methyl-1,3-benzoxazol-5-ol] | < 100 nM |  | 
13 | 1 to 10 µM | 1 to 10 µM | 1 to 10 µM | 1000 to 10000 nM | COc1cc2nc(C)sc2cc1-c1ccc2nc(N3CCC(NC(C)(C)C)C3)ccc2n1 (stereo not drawn) [Compound 176, N-tert-butyl-1-[6-(5-methoxy-2-methyl-1,3-benzothiazol-6-yl)-1,5-naphthyridin-2-yl]pyrrolidin-3-amine] | 1000 to 10000 nM |  | 
14 | 1 to 10 µM | 1 to 10 µM | 1 to 10 µM | 1000 to 10000 nM | COc1cc2nc(C)oc2cc1-c1ccc2nc(N3CCC(NC(C)(C)C)C3)ccc2n1 (stereo not drawn) [Compound 177, N-tert-butyl-1-[6-(5-methoxy-2-methyl-1,3-benzoxazol-6-yl)-1,5-naphthyridin-2-yl]pyrrolidin-3-amine] | 1000 to 10000 nM |  | 

The next lines start with the molecule.

Row | SMILES | IC50 [1] | IC50 [2] | IC50 [3] | IC50 [4, 5] | AC50 [4, 6] | AC50 [4, 7] | IC50 [4, 8]
15 | Cn1cc2cc(O)c(-c3ccc4nc(C5CCNCC5)ccc4n3)cc2n1 [Compound 146, 2-methyl-6-[6-(piperidin-4-yl)-1,5-naphthyridin-2-yl]indazol-5-ol] | 0.1 to 1 µM | 1 to 10 µM | 1 to 10 µM | 1000 to 10000 nM | 1000 to 10000 nM |  | 
16 | Cc1nc2cc(O)c(-c3ccc4nc(C5CCNCC5)ccc4n3)cc2o1 [Compound 147, 2-methyl-6-[6-(piperidin-4-yl)-1,5-naphthyridin-2-yl]-1,3-benzoxazol-5-ol] | < 0.1 µM | < 0.1 µM | < 0.1 µM | < 100 nM | < 100 nM |  | 
17 | Cc1nc2cc(O)c(-c3ccc4nc(C5CCNCC5)ccc4n3)cc2s1 [Compound 148] | < 0.1 µM | 1 to 10 µM | 1 to 10 µM | 1000 to 10000 nM | 1000 to 10000 nM |  | 
18 | Cc1cn2cc(-c3ccc4nc(C5CCNCC5)ccc4n3)c(O)cc2n1 [Compound 149, 2-methyl-6-[6-(piperidin-4-yl)-1,5-naphthyridin-2-yl]imidazo[1,2-a]pyridin-7-ol] | 0.1 to 1 µM | > 10 µM | > 10 µM | > 10000 nM | > 10000 nM |  | 
19 | Cc1cn2nc(-c3ccc4nc(C5CCNCC5)ccc4n3)c(O)c2c(C)n1 [Compound 150, 4,6-dimethyl-2-[6-(piperidin-4-yl)-1,5-naphthyridin-2-yl]pyrazolo[1,5-a]pyrazin-3-01] | < 0.1 µM | < 0.1 µM | < 0.1 µM | < 100 nM | < 100 nM |  | 
20 | Cc1cn2cc(-c3ccc4nc(C5CCNCC5)ccc4n3)c(O)c(C)c2n1 [Compound 151, 2,8-dimethyl-6-(6-(piperidin-4-yl)-1,5-naphthyridin-2-yl)imidazo[1,2-a]pyridin-7-ol hydrochloride] | 0.1 to 1 µM | 0.1 to 1 µM | 0.1 to 1 µM | 100 to 1000 nM | 100 to 1000 nM |  | 
21 | c1c[nH]c(-c2ccc3nc(C4CCNCC4)ccc3n2)n1 [Compound 152, 2-(1H-imidazol-2-yl)-6-(piperidin-4-yl)-1,5-naphthyridine] | 1 to 10 µM | > 10 µM | > 10 µM | > 10000 nM | > 10000 nM |  | 
22 | Cn1cc2cc(-c3ccc4nc(N5CC[C@@H](NC(C)(C)C)C5)ccc4n3)c(O)cc2n1 [Compound 153, 5-{6-[(3R)-3-(tert-butylamino)pyrrolidin-1-yl]-1,5-naphthyridin-2-yl}-2-methylindazol-6-ol] | < 0.1 µM | < 0.1 µM | < 0.1 µM | < 100 nM | < 100 nM |  | 
23 | Cn1cc2cc(-c3ccc4nc(N5CC[C@H](NC(C)(C)C)C5)ccc4n3)c(O)cc2n1 [Compound 154, 5-{6-[(3S)-3-(tert-butylamino)pyrrolidin-1-yl]-1,5-naphthyridin-2-yl}-2-methylindazol-6-ol] | < 0.1 µM | < 0.1 µM | < 0.1 µM | < 100 nM | < 100 nM |  | 
24 | Cn1cc2cc(-c3ccc4nc(N5CC[C@H](NC6CCC6)C5)ccc4n3)c(O)cc2n1 [Compound 156, 5-{6-[(3S)-3-(cyclobutylamino)pyrrolidin-1-yl]-1,5-naphthyridin-2-yl}-2-methylindazol-6-ol] | < 0.1 µM | 0.1 to 1 µM | < 0.1 µM |  |  | < 100 nM | < 100 nM
25 | Cn1cc2cc(-c3ccc4nc(N5CC[C@@H](NC6CCC6)C5)ccc4n3)c(O)cc2n1 [Compound 157] | < 0.1 µM | 0.1 to 1 µM | < 0.1 µM | < 100 nM | < 100 nM |  | 
26 | Cn1cc2cc(-c3ccc4nc(N5CCC(NC6CC6)C5)ccc4n3)c(O)cc2n1 (stereo not drawn) [Compound 158] | < 0.1 µM | < 0.1 µM | < 0.1 µM | < 100 nM | < 100 nM |  | 
27 | Cn1cc2cc(-c3ccc4nc(OC5CNC5)ccc4n3)c(O)cc2n1 [Compound 159] | 0.1 to 1 µM | 1 to 10 µM | 1 to 10 µM | 1000 to 10000 nM | 1000 to 10000 nM |  | 
28 | Cn1cc2cc(-c3ccc4nc(N5CC[C@]67CCN[C@H]6CC[C@H]57)ccc4n3)c(O)cc2n1 [Compound 160, 5-{6-[(1R,55,85)-4,9-diazatricyclo[6.3.0.0^{1,5}]undecan-4-yl]-1,5-naphthyridin-2-yl}-2-methylindazol-6-ol] | < 0.1 µM | 1 to 10 µM | 0.1 to 1 µM | 100 to 1000 nM | 100 to 1000 nM |  | 
29 | COc1cc2ccncc2cc1-c1ccc2nc(N3CCC(NC(C)(C)C)C3)ccc2n1 (stereo not drawn) [Compound 161, N-tert-butyl-1-[6-(6-methoxyisoquinolin-7-yl)-1,5-naphthyridin-2-yl]pyrrolidin-3-amine] | 1 to 10 µM | > 10 µM | > 10 µM | > 10000 nM | > 10000 nM |  | 
30 | CC(C)N[C@H]1CCN(c2ccc3nc(-c4cc5cn(C)nc5cc4O)ccc3n2)C1 [Compound 171] | < 0.1 µM | 0.1 to 1 µM | < 0.1 µM |  |  | < 100 nM | < 100 nM
